Assay results: patent publication US8946438B2, “Benzamides, production thereof, and use thereof as medicaments” (Boehringer Ingelheim International GmbH, priority 2008, dated 2015)

Molecular target: p38 MAP-kinase (Homo sapiens, UniProt Q16539)
Assay: Enzymatic assay: inhibition of p38 MAP-kinase (phosphorylation of GST-tagged ATF2, chemoluminescence bead readout)
Type: biochemical
Settings: inhibitor 1 μM, activated p38 MAP-kinase 1 nM, 4 h preincubation, ATP 100 μM, ATF2 10 nM; for inhibition at 1 µM: read-out: % inhibitory effect at 1 μM
Experimental: In this, the amount of a substrate phosphorylated by the kinase is quantified. The test is carried out as follows:
The kinase reaction is carried out in the presence of HEPES (20 mM, pH 7), MgCl2 (10 mM), DTT (1 mM) and TWEEN20 (0.01%). First, dimethylsulphoxide or inhibitor (final concentration: 1 μM) dissolved in dimethylsulphoxide are placed in a reaction vessel. Then the activated p38 MAP-kinase (final concentration 1 nM) is added and the mixture is incubated for 4 h at ambient temperature. Then a mixture of substrate (GST-tagged ATF2) and ATP is added and everything is incubated together for a further hour (final concentration ATP: 100 μM; final concentration ATF2: 10 nM).
The concentration of phosphorylated ATF2 is quantified by chemoluminescence-induced light emission. For this, a glutathione donor bead (final concentration: 5 μg/ml) which binds to the gluthathione on the ATF2 and phospho-ATF2 antibodies are added to the reaction mixture (final concentration: 3 nM; this binds the phosphate group added by the kinase reaction) to which a Protein A Acceptor Bead (final concentration: 5 μg/ml) binds. These components are dissolved in a buffer which contains 20 mM HEPES pH 7.0, 200 mM NaCL, 80 mM EDTA as well as 0.3% BSA. This reaction mixture is incubated in the dark for 1 hour at ambient temperature. When these beads come physically close, visible light is emitted which is measured in a photometer at 520-620 nm.
To determine the inhibitory activity of the compounds according to the invention a calculation is made to determine the percentage by which the kinase activity is inhibited at a fixed inhibitor concentration of 1 μM. The maximum activity is determined by non-inhibited kinase. The minimum activity or nonspecific background activity is determined using a reaction mixture without kinase. […] Table 2 summarises the degree of inhibition of the enzyme p38 MAP-kinase—as described hereinbefore—of the compounds according to the invention detailed in the section “Preparation of the final compounds”.

Sequence of p38 MAP-kinase (Q16539 whole entry): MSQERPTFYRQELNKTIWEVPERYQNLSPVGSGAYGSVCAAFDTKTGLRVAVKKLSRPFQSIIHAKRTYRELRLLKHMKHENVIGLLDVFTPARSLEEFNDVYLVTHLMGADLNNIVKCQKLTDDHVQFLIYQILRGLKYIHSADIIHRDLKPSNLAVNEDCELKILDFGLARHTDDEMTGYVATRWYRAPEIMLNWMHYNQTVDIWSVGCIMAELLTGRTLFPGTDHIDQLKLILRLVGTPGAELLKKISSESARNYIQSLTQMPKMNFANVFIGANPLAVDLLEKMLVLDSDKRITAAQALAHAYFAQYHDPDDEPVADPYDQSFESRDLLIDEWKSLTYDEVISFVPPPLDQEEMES

% inhibitory effect at 1 μM [%] | inhibition at 1 µM [%] | Compound
97.6 | – | COc1c(NC(=O)c2ccc(C)c(Oc3ccnc(N(C)C4CCNCC4)n3)c2)cc(C(C)(C)C)cc1NS(C)(=O)=O [5(25), N-(5-tert-butyl-3-methanesulphonylamino-2-methoxy-phenyl)-4-methyl-3-[2-(methyl-piperidin-4-yl-amino)-pyrimidin-4-yloxy]-benzamide]
– | 97.6 | COc1c(NC(=O)c2ccc(C)c(Oc3cc(NC4CCNC4)ncn3)c2)cc(C(C)(C)C)cc1NS(C)(=O)=O (centres unmarked) [5(26), N-(5-tert-butyl-3-methanesulphonylamino-2-methoxy-phenyl)-4-methyl-3-[6-(pyrrolidin-3-ylamino)-pyrimidin-4-yloxy]-benzamide]
– | 99 | COc1c(NC(=O)c2ccc(Cl)c(Oc3ccnc(NC4CCNCC4)n3)c2)cc(C(C)(C)C)cc1NS(C)(=O)=O [5(28), N-(5-tert-butyl-3-methanesulphonylamino-2-methoxy-phenyl)-4-chloro-3-[2-(piperidin-4-ylamino)-pyrimidin-4-yloxy]-benzamide]
– | 99 | COc1c(NC(=O)c2ccc(Cl)c(Oc3ccnc(CC4CCNCC4)c3)c2)cc(C(C)(C)C)cc1NS(C)(=O)=O [5(29), N-(5-tert-butyl-3-methanesulphonylamino-2-methoxy-phenyl)-4-chloro-3-(2-piperidin-4-ylmethyl-pyridin-4-yloxy)-benzamide]
– | 99 | COc1c(NC(=O)c2ccc(Cl)c(Oc3ccnc(CC4CCNCC4)n3)c2)cc(C(C)(C)C)cc1NS(C)(=O)=O [5(30), N-(5-tert-butyl-3-methanesulphonylamino-2-methoxy-phenyl)-4-chloro-3-(2-piperidin-4-ylmethyl-pyrimidin-4-yloxy)-benzamide]
– | 99.4 | COc1c(NC(=O)c2ccc(Cl)c(Oc3ccnc(NC4CCNCC4)c3)c2)cc(C(C)(C)C)cc1NS(C)(=O)=O [5(31), N-(5-tert-butyl-3-methanesulphonylamino-2-methoxy-phenyl)-4-chloro-3-[2-(piperidin-4-ylamino)-pyridin-4-yloxy]-benzamide]
– | 97.9 | COc1c(NC(=O)c2ccc(Cl)c(Oc3cc(CN4CCNCC4)ncn3)c2)cc(C(C)(C)C)cc1NS(C)(=O)=O [5(32), N-(5-tert-butyl-3-methanesulphonylamino-2-methoxy-phenyl)-4-chloro-3-(6-piperazin-1-ylmethyl-pyrimidin-4-yloxy)-benzamide]
– | 99.2 | COc1c(NC(=O)c2ccc(Cl)c(Oc3cc(CC4CCNCC4)ncn3)c2)cc(C(C)(C)C)cc1NS(C)(=O)=O [5(33), N-(5-tert-butyl-3-methanesulphonylamino-2-methoxy-phenyl)-4-chloro-3-(6-piperidin-4-ylmethyl-pyrimidin-4-yloxy)-benzamide]
– | 99.1 | COc1c(NC(=O)c2ccc(Cl)c(Oc3ccnc(CN4CCNCC4)c3)c2)cc(C(C)(C)C)cc1NS(C)(=O)=O [5(34), N-(5-tert-butyl-3-methanesulphonylamino-2-methoxy-phenyl)-4-chloro-3-(2-piperazin-1-ylmethyl-pyridin-4-yloxy)-benzamide]
– | 98.3 | COc1c(NC(=O)c2ccc(Cl)c(Oc3ccnc(CN4CCNCC4)n3)c2)cc(C(C)(C)C)cc1NS(C)(=O)=O [5(35), N-(5-tert-butyl-3-methanesulphonylamino-2-methoxy-phenyl)-4-chloro-3-(2-piperazin-1-ylmethyl-pyrimidin-4-yloxy)-benzamide]
– | 99.3 | COc1c(NC(=O)c2ccc(Cl)c(Oc3cc(CN4CCCNCC4)ncn3)c2)cc(C(C)(C)C)cc1NS(C)(=O)=O [5(36), N-(5-tert-butyl-3-methanesulphonylamino-2-methoxy-phenyl)-4-chloro-3-(6-[1,4]diazepan-1-ylmethyl-pyrimidin-4-yloxy)-benzamide]
– | 99.3 | COc1c(NC(=O)c2ccc(Cl)c(Oc3ccnc(CN4CCCNCC4)c3)c2)cc(C(C)(C)C)cc1NS(C)(=O)=O [5(37), N-(5-tert-butyl-3-methanesulphonylamino-2-methoxy-phenyl)-4-chloro-3-(2-[1,4]diazepan-1-ylmethyl-pyridin-4-yloxy)-benzamide]
– | 98.8 | COc1c(NC(=O)c2ccc(C)c(Oc3ccnc(CC4CCNCC4)n3)c2)cc(C(C)(C)C)cc1S(C)(=O)=O [5(38), N-(5-tert-butyl-3-methanesulphonyl-2-methoxy-phenyl)-4-methyl-3-(2-piperidin-4-ylmethyl-pyrimidin-4-yloxy)-benzamide]
– | 99.4 | COc1c(NC(=O)c2ccc(C)c(Oc3ccnc(CN4CCCNCC4)c3)c2)cc(C(C)(C)C)cc1S(C)(=O)=O [5(39), N-(5-tert-butyl-3-methanesulphonyl-2-methoxy-phenyl)-3-(2-[1,4]diazepan-1-ylmethyl-pyridin-4-yloxy)-4-methyl-benzamide]
– | 99.5 | COc1c(CSC)cc(C(C)(C)C)cc1NC(=O)c1ccc(C)c(Oc2ccnc(CC3CCNCC3)c2)c1 [5(40), N-(5-tert-butyl-2-methoxy-3-methylsulphanylmethyl-phenyl)-4-methyl-3-(2-piperidin-4-ylmethyl-pyridin-4-yloxy)-benzamide]
– | 99.6 | COc1c(CS(C)(=O)=O)cc(C(C)(C)C)cc1NC(=O)c1ccc(C)c(Oc2ccnc(CC3CCNCC3)c2)c1 [5(41), N-(5-tert-butyl-3-methanesulphonylmethyl-2-methoxy-phenyl)-4-methyl-3-(2-piperidin-4-ylmethyl-pyridin-4-yloxy)-benzamide]
– | 99.5 | COc1c(C[S+](C)[O-])cc(C(C)(C)C)cc1NC(=O)c1ccc(C)c(Oc2ccnc(CC3CCNCC3)c2)c1 (centres unmarked) [5(42), N-(5-tert-butyl-2-methoxy-3-methylsulphinylmethyl-phenyl)-4-methyl-3-(2-piperidin-4-ylmethyl-pyridin-4-yloxy)-benzamide]
– | 98.6 | COc1c(NC(=O)c2ccc(C)c(Oc3ccnc(CC4CCNCC4)c3)c2)cc(C(C)(C)C)cc1NC(=O)C1CC1 [5(43), N-[5-tert-butyl-3-(cyclopropanecarbonyl-amino)-2-methoxy-phenyl]-4-methyl-3-(2-piperidin-4-ylmethyl-pyridin-4-yloxy)-benzamide]
– | 93.2 | Cc1ccc(C(=O)Nc2cc(C(C)(C)C)cc(NS(C)(=O)=O)c2OC(C)C)cc1Oc1ccnc(CC2CCNCC2)c1 [5(44), N-(5-tert-butyl-2-isopropoxy-3-methanesulphonylamino-phenyl)-4-methyl-3-(2-piperidin-4-ylmethyl-pyridin-4-yloxy)-benzamide]
– | 99.6 | CCOc1c(NC(=O)c2ccc(C)c(Oc3ccnc(CC4CCNCC4)c3)c2)cc(C(C)(C)C)cc1NS(C)(=O)=O [5(45), N-(5-tert-butyl-2-ethoxy-3-methanesulphonylamino-phenyl)-4-methyl-3-(2-piperidin-4-ylmethyl-pyridin-4-yloxy)-benzamide]
– | 99.6 | COc1c(NC(=O)c2ccc(C)c(Oc3ccnc(CC4CCNCC4)c3)c2)cc(C(C)(C)C)cc1NS(=O)(=O)CC(C)C [5(46), N-[5-tert-butyl-2-methoxy-3-(2-methyl-propane-1-sulphonylamino)-phenyl]-4-methyl-3-(2-piperidin-4-ylmethyl-pyridin-4-yloxy)-benzamide]
– | 97.3 | COc1c(NC(=O)c2ccc(C)c(Oc3ccnc(CC4CCNCC4)c3)c2)cc(C(C)(C)C)cc1NC(=O)C(C)C [5(47), N-(5-tert-butyl-3-isobutyrylamino-2-methoxy-phenyl)-4-methyl-3-(2-piperidin-4-ylmethyl-pyridin-4-yloxy)-benzamide]
– | 99.4 | COc1c(NC(=O)c2ccc(C)c(Oc3ccnc(CC4CCNCC4)c3)c2)cc(C(C)(C)C)cc1[S+](C)[O-] (centres unmarked) [5(48), N-(5-tert-butyl-3-methanesulphinyl-2-methoxy-phenyl)-4-methyl-3-(2-piperidin-4-ylmethyl-pyridin-4-yloxy)-benzamide]
– | 99.2 | COc1c(NC(=O)c2ccc(C)c(Oc3ccnc(CC4CCNCC4)c3)c2)cc(C(F)(F)F)cc1NS(C)(=O)=O [5(49), N-(3-methanesulphonylamino-2-methoxy-5-trifluoromethyl-phenyl)-4-methyl-3-(2-piperidin-4-ylmethyl-pyridin-4-yloxy)-benzamide]
– | 99.6 | COc1c(NC(=O)c2ccc(C)c(Oc3ccnc(CC4CCNCC4)c3)c2)cc(C(C)(C)C)cc1NS(=O)(=O)C(C)C [5(50), N-[5-tert-butyl-2-methoxy-3-(propane-2-sulphonylamino)-phenyl]-4-methyl-3-(2-piperidin-4-ylmethyl-pyridin-4-yloxy)-benzamide]
– | 99.5 | COc1c(NC(=O)c2ccc(C)c(Oc3ccnc(CC4CCCNCC4)c3)c2)cc(C(C)(C)C)cc1NS(C)(=O)=O (centres unmarked) [5(52), 3-(2-azepan-4-ylmethyl-pyridin-4-yloxy)-N-(5-tert-butyl-3-methanesulphonylamino-2-methoxy-phenyl)-4-methyl-benzamide]
